# System: anti-Psl mAb WapR-016 (class III)
# Assay: ELISA, class III mAb WapR-016 binding to oligosaccharide-BSA conjugates
# Conditions: oligosaccharide-BSA conjugate coated on plate; mAb 5 μg/mL
# Protocol: Microtiter plates were coated with tetrasaccharide (3)-BSA conjugate (3A), pentasaccharide (2)-BSA conjugate (3B), hexasaccharide (4)-BSA conjugate (3C), and decasaccharide (1)-BSA conjugate (3D) at the indicated carbohydrate concentrations. Anti-Psl mAbs class I (Cam-003, ●), class II (WapR-001, ▪), class III (WapR-016, ▴), and R347 (♦) (5 μg/mL) were tested for reactivity with each oligosaccharide component. The optical density (OD) values are reported as the means±SD. Class I (Cam-003), II (WapR-001), and III (WapR-016) anti-Psl mAbs were previously shown to bind three unique epitopes of Psl derived from P. aeruginosa.
# The conjugations were performed as instructed by Pierce Endogen Inc. In short, the thiol derivative (2.5 eq. excess to available MI-groups on the protein), deprotected just prior to conjugation as described above, was dissolved in ddH2O (100 μL) and added to a solution of the maleimide activated protein (2 mg) in conjugation buffer sodium phosphate pH 7.2 containing EDTA and sodium azide (200 μL). The mixture was incubated at room temperature for 18 h and then purified by Millipore Centriplus centrifugal filter devices with a 10 kDa molecular cutoff. All centrifugations were performed at 4° C. for 25 min, 3000 rpm. The reaction mixture was centrifuged and the filter washed with sodium phosphate buffer pH 7.4 (3×200 μL). The conjugate was retrieved and taken up in sodium phosphate buffer pH 7.4, 0.15 M sodium chloride (1 mL). This gave glycoconjugates with a molar carbohydrate/BSA ratio of 7:1 for tetrasaccharide 3, 8:1 for pentasaccharide 2, 15:1 for hexasaccharide 4, and 5:1 for decasaccharide 1 as determined by quantitative monosaccharide analysis by HPAEC/PAD and the Lowry protein concentration assay.
# ELISA plates (Nunc MaxiSorp) were coated overnight at 4° C. with 3-fold serial dilutions of oligosaccharide-BSA conjugates (relative to the concentration of the conjugated oligosaccharides) followed by washing with PBS supplemented with 0.1% Tween 20 (PBS-T) and blocking with PBS supplemented with 1% bovine serum albumin (PBS-B). The coated ELISA plates were incubated with anti-Psl antibodies (5 μg/mL in PBS-B) for 1 h at 4° C. Next the plates were washed with PBS-T and treated with HRP-conjugated anti-human secondary antibodies for 1 h followed by development and analysis as described (Digiandomenico, A., et al., J. Exp. Med. 2012, 209, 1273-1287).
# After confirming the structural integrity of the synthetic Psl oligosaccharides, the ability of various anti-Psl mAbs to recognize the synthetic oligosaccharides was examined as follows. […]
row,SMILES,ELISA reactivity with WapR-016
1,CC1O[C@@H](OC2C(O)[C@H](OCN)OC(CO)[C@H]2O)C(O)C(O[C@@H]2OC(CO)[C@@H](O)C(O[C@@H]3OC(CO)[C@@H](O)C(O[C@@H]4OC(CO)[C@@H](O)C(O)C4O)C3O[C@H]3OC(CO)[C@@H](O)C(O)C3O)C2O)[C@H]1O (stereo partly shown) [compound 4],react potently
2,CC1O[C@@H](OC2C(O)[C@H](OC3C(O[C@H]4OC(CO)[C@@H](O)C(O)C4O)[C@H](OC4C(O)[C@H](OC5C(O)[C@H](OC6C(O)[C@H](OCN)OC(CO)[C@H]6O)OC(C)[C@@H]5O)OC(CO)[C@H]4O)OC(CO)[C@H]3O)OC(CO)[C@H]2O)C(O)C(O[C@@H]2OC(CO)[C@@H](O)C(O[C@@H]3OC(CO)[C@@H](O)C(O)C3O[C@H]3OC(CO)[C@@H](O)C(O)C3O)C2O)[C@H]1O (stereo partly shown) [compound 1],weakly
3,CC1O[C@@H](OC2C(O)[C@H](OCN)OC(CO)[C@H]2O)C(O)C(O[C@@H]2OC(CO)[C@@H](O)C(O[C@@H]3OC(CO)[C@@H](O)C(O)C3O)C2O)[C@H]1O (stereo partly shown) [compound 3],did not bind
4,CC1O[C@@H](OC2C(O)[C@H](OCN)OC(CO)[C@H]2O)C(O)C(O[C@@H]2OC(CO)[C@@H](O)C(O[C@@H]3OC(CO)[C@@H](O)C(O)C3O[C@H]3OC(CO)[C@@H](O)C(O)C3O)C2O)[C@H]1O (stereo partly shown) [compound 2],did not bind

# Reference: US10870710B2, “Synthetic oligosaccharide subunits of the Psl exopolysaccharide of pseudomonas aeruginosa and uses thereof” (Medlmmune Limited, priority 2013, dated 2020)
